Columns and labels:
HBV = assay: Test of anti HBV activity in vitro (viral DNA by qPCR); type: cell-based; conditions: Hepatitis B virus; HepG2.2.15 cells, viral DNA in cell culture supernatant by qPCR; read-out: EC50 values of the compound of the invention on viral replication
Method in brief: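 HepG2.2.15 cells (integrated HBV genome) were grown to confluence, then treated with compound in 4-fold dilutions from 4 μM final (0.5% DMSO). Secreted viral DNA in supernatant was quantified by SYBR qPCR against an HBV plasmid standard curve; EC50 from four-parameter nonlinear regression of concentration versus copy number.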

[1] = Cytotoxicity test with CellTiter Glo; type: cell-based; conditions: human, HepG2.2.15 cells, highest concentration 150 μM, read-out: CC50 values of the compounds of the invention
Method: Test 2: Cytotoxicity and Selectivity Index
Methods of Testing Cytotoxicity and Selectivity Index
The serial diluted compound was added to a 384 wells plate at 50 μL HepG2.2.15 cell per well (3000 cells per well), the highest final concentration in the experiment is 150 μM (200 fold dilution). The plate was cultured at 37° C. in an incubator with CO2 for 4 days, and cytotoxicity of the compound was detected using CellTiter Glo agent.
The cytotoxicity of the compound was calculated using the following formulate, cytotoxicity (%)=100−(detection value/mean of DMSO control wells values×100) CC50 values were calculated by a four parametric nonlinear regression model using Graphpad Prism 5 software to manage concentration−cytotoxicity (%).

Row | SMILES | EC50 (HBV) [nM] | CC50 at 4 days [1] [nM]
1 | COC(=O)C1=C(CN2CCN3C(=O)N(c4ccc(OC5CCC(C(=O)O)CC5)cc4F)C[C@@H]3C2)NC(c2nccs2)=N[C@H]1c1ccc(F)cc1Cl (stereo partly drawn) [Example 112, 4-(4-((S)-7-(((R)-6-(2-chloro-4-fluorophenyl)-5-(methoxycarbonyl)-2-(thiazol-2-yl)-3,6-dihydropyrimidin-4-yl)methyl)-3-oxohexahydroimidazo[1,5-a]pyrazin-2(3H)-yl)-3-fluorophenoxy)cyclohexane carboxylic acid] | 15.4 | > 150000
2 | COC(=O)C1=C(CN2CCN3C(=O)N(CC#Cc4ccc(C#N)cc4)C[C@@H]3C2)NC(c2nccs2)=N[C@H]1c1ccc(F)cc1Cl [Example 44, (R)-methyl 4-(2-chloro-4-fluorophenyl)-6-(((S)-2-(3-(4-cyanophenyl)prop-2-yn-1-yl)-3-oxohexahydroimidazo[1,5-a]pyrazin-7(1H)-yl)methyl)-2-(thiazol-2-yl)-1,4-dihydropyrimidine-5-carboxylate] | 3.6 | > 150000
3 | COC(=O)C1=C(CN2CCN3C(=O)N(c4ccc(-c5cc(C(=O)O)ccc5F)cc4)C[C@@H]3C2)NC(c2nccs2)=N[C@H]1c1ccc(F)cc1Cl [Example 116] | 19.9 | > 150000
4 | COC(=O)C1=C(CN2CCN3C(=O)N(c4nc(-c5cccc(C(=O)O)c5)cs4)C[C@@H]3C2)NC(c2nccs2)=N[C@H]1c1ccc(F)cc1Cl [Example 139, 3-(2-((S)-7-(((R)-6-(2-chloro-4-fluorophenyl)-5-(methoxycarbonyl)-2-(thiazol-2-yl)-3,6-dihydropyrimidin-4-yl)methyl)-3-oxohexahydroimidazo[1,5-a]pyrazin-2(3H)-yl)thiazol-4-yl)benzoic acid] | 10.7 | > 150000
5 | COC(=O)C1=C(CN2CCN3C(=O)N(c4ccc(-c5nc(C6CC6)c[nH]5)cc4)C[C@@H]3C2)NC(c2nccs2)=N[C@H]1c1ccc(F)cc1Cl [Example 111, (R)-methyl 4-(2-chloro-4-fluorophenyl)-6-(((S)-2-(4-(4-cyclopropyl-1H-imidazol-2-yl)phenyl)-3-oxohexahydroimidazo[1,5-a]pyrazin-7(1H)-yl)methyl)-2-(thiazol-2-yl)-1,4-dihydropyrimidine-5-carboxylate] | 7.5 | > 150000
6 | COC(=O)C1=C(CN2CCN3C(=O)N(c4cc(F)cc(Oc5ccc(C(=O)O)cc5F)c4)C[C@@H]3C2)NC(c2nccs2)=N[C@H]1c1ccccc1Cl [Example 93, 4-(3-((S)-7-(((R)-6-(2-chlorophenyl)-5-(methoxycarbonyl)-2-(thiazol-2-yl)-3,6-dihydropyrimidin-4-yl)methyl)-3-oxohexahydroimidazo[1,5-a]pyrazin-2(3H)-yl)-5-fluorophenoxy)-3-fluorobenzoic acid] | 21.5 | > 150000
7 | COC(=O)C1=C(CN2CCN3C(=O)N(CC#Cc4ccc(S(=O)(=O)N(C)C)cc4)C[C@@H]3C2)NC(c2nccs2)=N[C@H]1c1ccc(F)cc1Cl [Example 43, (R)-methyl 4-(2-chloro-4-fluorophenyl)-6-(((S)-2-(3-(4-(N,N-dimethylaminosulfonyl)phenyl)prop-2-yn-1-yl)-3-oxohexahydroimidazo[1,5-a]pyrazin-7(1H)-yl)methyl)-2-(thiazol-2-yl)-1,4-dihydropyrimidine-5-carboxylate] | 7.2 | > 150000
8 | COC(=O)C1=C(CN2CCN3C(=O)N(c4ccc(-c5ccc(C(=O)O)cc5)nc4)C[C@@H]3C2)NC(c2nccs2)=N[C@H]1c1ccc(F)cc1Cl [Example 122, 4-(5-((S)-7-(((R)-6-(2-chloro-4-fluorophenyl)-5-(methoxycarbonyl)-2-(thiazol-2-yl)-3,6-dihydropyrimidin-4-yl)methyl)-3-oxohexahydroimidazo[1,5-a]pyrazin-2(3H)-yl)pyridin-2-yl)benzoic acid] | 45.6 | > 150000
9 | COC(=O)C1=C(CN2CCN3C(=O)N(c4nc(-c5ccc(CCC(=O)O)cc5)cs4)C[C@@H]3C2)NC(c2nccs2)=N[C@H]1c1ccc(F)cc1Cl [Example 135, 3-(4-(2-((S)-7-(((R)-6-(2-chloro-4-fluorophenyl)-5-(methoxycarbonyl)-2-(thiazol-2-yl)-3,6-dihydropyrimidin-4-yl)methyl)-3-oxohexahydroimidazo[1,5-a]pyrazin-2(3H)-yl)thiazol-4-yl)phenyl)propanoic acid] | 6.5 | > 150000
10 | COC(=O)C1=C(CN2CCN3C(=O)N(c4ccc(Oc5ccc(C(=O)N6CCCC6(F)F)cc5)cc4)C[C@@H]3C2)NC(c2nccs2)=N[C@H]1c1ccc(F)cc1Cl [Example 57, (R)-methyl 4-(2-chloro-4-fluorophenyl)-6-(((S)-2-(4-(4-(2,2-difluoropyrrolidine-1-carbonyl)phenoxy)phenyl)-3-oxohexahydroimidazo[1,5-a]pyrazin-7(1H)-yl)methyl)-2-(thiazol-2-yl)-1,4-dihydropyrimidine-5-carboxylate] | 28.1 | > 150000
11 | COC(=O)C1=C(CN2CCN3C(=O)N(c4ccc(-c5ccc(C(C)(C)C(=O)O)cc5)nc4)C[C@@H]3C2)NC(c2nccs2)=N[C@H]1c1ccc(F)cc1Cl [Example 125, 2-(4-(5-((S)-7-(((R)-6-(2-chloro-4-fluorophenyl)-5-(methoxycarbonyl)-2-(thiazol-2-yl)-3,6-dihydropyrimidin-4-yl)methyl)-3-oxohexahydroimidazo[1,5-a]pyrazin-2(3H)-yl)pyridin-2-yl)phenyl)-2-methylpropanoic acid] | 21 | > 150000
12 | COC(=O)C1=C(CN2CCN3C(=O)N(c4ccc(-c5ccc(C(=O)O)cc5F)c(F)c4)C[C@@H]3C2)NC(c2nccs2)=N[C@H]1c1ccc(F)cc1Cl [Example 33, 4′-((S)-7-(((R)-6-(2-chloro-4-fluorophenyl)-5-(methoxycarbonyl)-2-(thiazol-2-yl)-3,6-dihydropyrimidin-4-yl)methyl)-3-oxohexahydroimidazo[1,5-a]pyrazin-2(3H)-yl)-2,2′-difluoro-[1,1′-diphenyl]-4-carboxylic acid] | 7 | > 150000
13 | COC(=O)C1=C(CN2CCN3C(=O)N(c4ccnc(-c5ccc(C(=O)O)cc5)c4)C[C@@H]3C2)NC(c2nccs2)=N[C@H]1c1ccc(F)cc1Cl [Example 123, 4-(4-((S)-7-(((R)-6-(2-chloro-4-fluorophenyl)-5-(methoxycarbonyl)-2-(thiazol-2-yl)-3,6-dihydropyrimidin-4-yl)methyl)-3-oxohexahydroimidazo[1,5-a]pyrazin-2(3H)-yl)pyridin-2-yl)benzoic acid] | 37.9 | > 150000
14 | COC(=O)C1=C(CN2CCN3C(=O)N(c4cc(F)cc(Oc5ccc(C(=O)O)cc5F)c4)C[C@@H]3C2)NC(c2nccs2)=N[C@H]1c1cccc(F)c1Cl [Example 90, 4-(3-((S)-7-(((R)-6-(2-chloro-3-fluorophenyl)-5-(methoxycarbonyl)-2-(thiazol-2-yl)-3,6-dihydropyrimidin-4-yl)methyl)-3-oxohexahydroimidazo[1,5-a]pyrazin-2(3H)-yl)-5-fluorophenoxy)-3-fluorobenzoic acid] | 12.5 | > 150000
15 | COC(=O)C1=C(CN2CCN3C(=O)N(c4ccc(-c5ccc(C(=O)O)cc5)c(F)c4)C[C@@H]3C2)NC(c2nccs2)=N[C@H]1c1ccc(F)cc1Cl [Example 35, 4′-((S)-7-(((R)-6-(2-chloro-4-fluorophenyl)-5-(methoxycarbonyl)-2-(thiazol-2-yl)-3,6-dihydropyrimidin-4-yl)methyl)-3-oxohexahydroimidazo[1,5-a]pyrazin-2(3H)-yl)-2′-fluoro-[1,1′-diphenyl]-4-carboxylic acid] | 7 | > 150000
16 | COC(=O)C1=C(CN2CCN3C(=O)N(CC#Cc4ccc(C(C)(C)O)cc4)C[C@@H]3C2)NC(c2nccs2)=N[C@H]1c1ccc(F)cc1Cl [Example 38, (R)-methyl 4-(2-chloro-4-fluorophenyl)-6-(((S)-2-(3-(4-(2-hydroxyprop-2-yl)phenyl)-2-propyn-1-yl)-3-oxohexahydroimidazo[1,5-a]pyrazin-7(1H)-yl)methyl)-2-(thiazol-2-yl)-1,4-dihydropyrimidine-5-carboxylate] | 7.1 | > 150000
17 | COC(=O)C1=C(CN2CCN3C(=O)N(c4ccc(Oc5ccc(C(C)(C)O)cc5)cc4)C[C@@H]3C2)NC(c2nccs2)=N[C@H]1c1ccc(F)cc1Cl [Example 100, (R)-methyl 4-(2-chloro-4-fluorophenyl)-6-(((S)-2-(4-(4-(2-hydroxyprop-2-yl)phenoxy)phenyl)-3-oxohexahydroimidazo[1,5-a]pyrazin-7(1H)-yl)methyl)-2-(thiazol-2-yl)-1,4-dihydropyrimidine-5-carboxylate] | 16.8 | > 150000
18 | COC(=O)C1=C(CN2CCN3C(=O)N(c4ccc(Oc5ccc(C#N)cc5)cc4)C[C@@H]3C2)NC(c2nccs2)=N[C@H]1c1ccc(F)cc1Cl [Example 97, (R)-methyl 4-(2-chloro-4-fluorophenyl)-6-(((S)-2-(4-(4-cyanophenoxy)phenyl)-3-oxohexahydroimidazo[1,5-a]pyrazin-7(1H)-yl)methyl)-2-(thiazol-2-yl)-1,4-dihydropyrimidine-5-carboxylate] | 36.8 | > 150000
